# Patent publication US7410993B2, “3,6-disubstituted azabicyclo [3.1.0] hexane deriviatives useful as muscarinic receptor antagonists” (Ranbaxy Laboratories Limited, priority 2002, dated 2008)
# Molecular target: T1, M2 muscarinic receptor (Rattus norvegicus, UniProt P10980)
# T1 construct: Submandibular glands and heart were isolated and placed in ice cold homogenizing buffer; from tissue; host or cells: rat heart membrane homogenate
# T1 sequence (P10980 1-466): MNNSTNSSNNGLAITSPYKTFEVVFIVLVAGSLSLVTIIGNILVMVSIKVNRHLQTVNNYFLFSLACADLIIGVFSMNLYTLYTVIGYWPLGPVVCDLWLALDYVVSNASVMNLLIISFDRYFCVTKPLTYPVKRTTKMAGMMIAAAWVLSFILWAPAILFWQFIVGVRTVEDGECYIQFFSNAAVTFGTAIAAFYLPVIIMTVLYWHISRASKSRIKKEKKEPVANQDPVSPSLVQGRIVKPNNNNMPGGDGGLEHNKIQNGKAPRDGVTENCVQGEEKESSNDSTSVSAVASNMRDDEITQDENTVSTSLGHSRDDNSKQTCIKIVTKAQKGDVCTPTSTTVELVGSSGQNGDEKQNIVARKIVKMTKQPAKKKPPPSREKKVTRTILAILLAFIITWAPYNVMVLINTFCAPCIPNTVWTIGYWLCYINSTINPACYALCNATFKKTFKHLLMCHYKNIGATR
# Assay: Radioligand binding assay, [3H]-N-methylscopolamine, rat heart membranes
# Conditions: [3H]NMS binding
row,SMILES,Ki
1,"Cc1ccc(O)c(C(CCN2CC3CC3C2C)c2ccccc2)c1 (single isomer, unassigned) [Compound No. 8, 1-(2-methyl-3-azabicyclo[3.1.0]hex-3-yl)-3-(2-hydroxy-5-methylphenyl)-3-phenyl propane]",34 nM
2,"Cc1ccc(O)c(C(CCN2CC3CC3C2C)c2ccccc2)c1 (single isomer, unassigned) [Compound No. 9, 1-(2-methyl-3-azabicyclo[3.1.0]hex-3-yl)-3-(2-hydroxy-5-methylphenyl)-3-phenyl propane]",42 nM
3,"Cc1ccc(O)c(C(CCN2CC3CC3C2)c2ccccc2)c1 (stereo not drawn) [Compound No. 2, 1-(3-azabicyclo[3.1.0]hex-3-yl)-3-(2-hydroxy-5-methylphenyl)-3-phenyl propane]",105 nM
4,"Cc1ccc(OCc2ccccc2)c(C(CCN2CC3(C)CC3(C)C2)c2ccccc2)c1 (stereo not drawn) [Compound No. 3, 1-(1,5-dimethyl-3-azabicyclo[3.1.0]hex-3-yl)-3-(2-benzyloxy-5-methylphenyl)-3-phenyl propane]",> 10000 nM
5,"Cc1ccc(O)c(C(CCN2CC3(C)CC3(C)C2)c2ccccc2)c1 (stereo not drawn) [Compound No. 4, 1-(1,5-dimethyl-3-azabicyclo[3.1.0]hex-3-yl)-3-(2-hydroxy-5-methylphenyl)-3-phenyl propane]",> 1000 nM
6,"Cc1ccc(O)c(C(CCN2CC3CC3(C)C2)c2ccccc2)c1 (stereo not drawn) [Compound No. 6, 1-(1-methyl-3-azabicyclo[3.1.0]hex-3-yl)-3-(2-hydroxy-5-methylphenyl)-3-phenyl propane]",221 nM
